Where no end group is shown, it is not given here. [ ]: non-standard residue; d: D form. dAllylGly = C=CC[C@@H](N)C(=O)O; AllylGly = C=CC[C@H](N)C(=O)O
What was measured:
[1] = test system: CaCo2 monolayers; assay: Trans Epithelial Electric Resistance (TEER) across CaCo2 monolayers; type: cell-based; set-up: key to Reduced TEER: + indicates an enhancement of the permeability of the tight junctions were observed; − indicates no enhancement of permeability was observed; settings: for Reduced TEER: CaCo2 monolayers
Excerpt: (§1) Agonists of tight junctions can be identified by their ability to enhance the flux of compounds (e.g. ions, Lucifer Yellow) through a cell monolayer that comprises tight junctions; or by their ability to reduce TEER across a cell monolayer that comprises tight junctions. Treatment of CaCo2 monolayers with peptide FCIGRL (SEQ ID NO: 1) led to a 51-fold enhancement of Lucifer Yellow permeability through CaCo2 monolayers compared to vehicle alone.
Treatment of CaCo2 monolayers with peptide FCIGRL led to a 16-fold decrease in TEER across CaCo2 monolayers compared to vehicle alone.
(§2) Tight junction agonists can be identified and tested using the following method:
(§3) Determination of TEER and Lucifer Yellow Flux
(§4) Prepare Modified Hank's Balanced Salt Solution (MHBSS) by obtaining 1 L bottle of HBSS removing 10 ml of HBSS and replacing it with 10 ml HEPES buffer pH 7.0. Adjust pH to 7.4±0.1 using concentrated NaOH (10N).
(§5) Remove CaCo-2 cells from incubator, grown on 12-well, 3.0 μM, polycarbonate Transwell® filters (Corning) and record passage#, date cells seeded and age in days.
(§6) Aspirate cell culture medium from both the apical (AP) and basolateral (BL) compartments, replacing with 0.5 ml and 1.5 ml of MHBSS, respectively. Incubate cells at 37° C. for 30 minutes.
Using the MilliCell®-ERS instrument (Millipore), measure and record the transepithelial electrical resistance (TEER) across each filter and record.
(§7) Aspirate solution from the apical compartment of each filter (n=3 per condition) and replace with 0.5 ml of control and test solutions containing Lucifer Yellow and test compound if appropriate.
(§8) Place all plates into incubator set at 37° C. (±0.2), 50 RPM (±5) for a total of 180 minutes.
At t=30, 60, 120 and 180 minutes, measure and record the transepithelial electrical resistance (TEER) across each filter using the MilliCell-ERS instrument.
(§9) Cells: CaCo-2 cells passage 40-60 grown on Transwell® plates for 21-28 days
(§10) Culture Medium: DMEM supplemented with 10% fetal bovine serum, 1% NEAA, 1% Penn/Strep
(§11) Buffers: Hank's Balanced Salt Solution (HBSS) without calcium and magnesium
(§12) Flasks: 100×20 mm Tissue culture dish Falcon.
(§13) Plates: 12 well polycarbonate Transwell® filters; 0.3 uM pore size

[2] = test system: CaCo2 monolayers; assay: Lucifer Yellow (LY) permeability assay through CaCo2 monolayers; type: cell-based; set-up: key to Enhanced LY permeability: + indicates an enhancement of the permeability of the tight junctions were observed; − indicates no enhancement of permeability was observed; settings: for Enhanced LY permeability: CaCo2 monolayers, Lucifer Yellow flux
Excerpt: as §1, §2, §3, §4, §5, §6, §7, §8
At t=60, 120 and 180 minutes remove […] from each basolateral compartment and place it in a 96-well plate for Lucifer Yellow analysis, replace with 100 μl of MHBSS.
Make a Lucifer Yellow standard curve with the following dilutions (7500 μM, 3750 μM, 750 μM, 375 μM, 37.5 μM, 7.5 μM, 3.75 μM, 0.75 μM) and pipette 100 μL of each into a 96-well plate except for the first three standards mentioned above which require a 1:10 dilutions prior to transferring to the 96-well plate.
Harvest the remaining start solutions and what is left in each apical compartment into 1.5 ml vials. Freeze at −20° C. for future analysis.
Analyze each 96-well plate in a Tecan Spectra Fluor Plus using Magellan at 485 and 535 nm.
as §9, §10, §11, §12, §13

Substance | Reduced TEER [1] | Enhanced LY permeability [2] | decrease in TEER across CaCo2 monolayers ([1]; compared to vehicle alone) [fold] | enhancement of Lucifer Yellow permeability through CaCo2 monolayers ([2]; compared to vehicle alone) [fold]
49 (F[AllylGly]IFRL-NH2; N-terminus assumed; SMILES C=CC[C@H](NC(=O)[C@@H](N)Cc1ccccc1)C(=O)N[C@H](C(=O)N[C@@H](Cc1ccccc1)C(=O)N[C@@H](CCCNC(=N)N)C(=O)N[C@@H](CC(C)C)C(N)=O)[C@@H](C)CC) [compound 49] | + | + |  | 
FCIGRL [SEQ ID NO: 1, Phe−Cys−Ile−Gly−Arg−Leu, reference compound] |  |  | 16 | 51
31 (F[AllylGly]HGRL-NH2; N-terminus assumed; SMILES C=CC[C@H](NC(=O)[C@@H](N)Cc1ccccc1)C(=O)N[C@@H](Cc1c[nH]cn1)C(=O)NCC(=O)N[C@@H](CCCNC(=N)N)C(=O)N[C@@H](CC(C)C)C(N)=O) [compound 31] | + | + |  | 
90 (F[AllylGly]IGRV-NH2; N-terminus assumed; SMILES C=CC[C@H](NC(=O)[C@@H](N)Cc1ccccc1)C(=O)N[C@H](C(=O)NCC(=O)N[C@@H](CCCNC(=N)N)C(=O)N[C@H](C(N)=O)C(C)C)[C@@H](C)CC) [compound 90] | + | + |  | 
24 (F[AllylGly]TGRL-NH2; N-terminus assumed; SMILES C=CC[C@H](NC(=O)[C@@H](N)Cc1ccccc1)C(=O)N[C@H](C(=O)NCC(=O)N[C@@H](CCCNC(=N)N)C(=O)N[C@@H](CC(C)C)C(N)=O)[C@@H](C)O) [compound 24] | − | − |  | 
59 (F[AllylGly]IGGL-NH2; N-terminus assumed; SMILES C=CC[C@H](NC(=O)[C@@H](N)Cc1ccccc1)C(=O)N[C@H](C(=O)NCC(=O)NCC(=O)N[C@@H](CC(C)C)C(N)=O)[C@@H](C)CC) [compound 59] | + | + |  | 
38 (F[AllylGly]YGRL-NH2; N-terminus assumed; SMILES C=CC[C@H](NC(=O)[C@@H](N)Cc1ccccc1)C(=O)N[C@@H](Cc1ccc(O)cc1)C(=O)NCC(=O)N[C@@H](CCCNC(=N)N)C(=O)N[C@@H](CC(C)C)C(N)=O) [compound 38] | + | + |  | 
54 (F[AllylGly]IVRL-NH2; N-terminus assumed; SMILES C=CC[C@H](NC(=O)[C@@H](N)Cc1ccccc1)C(=O)N[C@H](C(=O)N[C@H](C(=O)N[C@@H](CCCNC(=N)N)C(=O)N[C@@H](CC(C)C)C(N)=O)C(C)C)[C@@H](C)CC) [compound 54] | + | − |  | 
87 (F[AllylGly]IGRI-NH2; N-terminus assumed; SMILES C=CC[C@H](NC(=O)[C@@H](N)Cc1ccccc1)C(=O)N[C@H](C(=O)NCC(=O)N[C@@H](CCCNC(=N)N)C(=O)N[C@H](C(N)=O)[C@@H](C)CC)[C@@H](C)CC) [compound 87] | + | + |  | 
62 (F[AllylGly]IGKL-NH2; N-terminus assumed; SMILES C=CC[C@H](NC(=O)[C@@H](N)Cc1ccccc1)C(=O)N[C@H](C(=O)NCC(=O)N[C@@H](CCCCN)C(=O)N[C@@H](CC(C)C)C(N)=O)[C@@H](C)CC) [compound 62] | + | + |  | 
4 (F[dAllylGly]IGR-NH2; N-terminus assumed; SMILES C=CC[C@@H](NC(=O)[C@@H](N)Cc1ccccc1)C(=O)N[C@H](C(=O)NCC(=O)N[C@@H](CCCNC(=N)N)C(N)=O)[C@@H](C)CC) [compound 4] | − | − |  | 
6 (Q[AllylGly]IGRL-NH2; N-terminus assumed; SMILES C=CC[C@H](NC(=O)[C@@H](N)CCC(N)=O)C(=O)N[C@H](C(=O)NCC(=O)N[C@@H](CCCNC(=N)N)C(=O)N[C@@H](CC(C)C)C(N)=O)[C@@H](C)CC) [compound 6] | − | − |  | 
25 (F[AllylGly]LGRL-NH2; N-terminus assumed; SMILES C=CC[C@H](NC(=O)[C@@H](N)Cc1ccccc1)C(=O)N[C@@H](CC(C)C)C(=O)NCC(=O)N[C@@H](CCCNC(=N)N)C(=O)N[C@@H](CC(C)C)C(N)=O) [compound 25] | + | + |  | 
32 (F[AllylGly]DGRL-NH2; N-terminus assumed; SMILES C=CC[C@H](NC(=O)[C@@H](N)Cc1ccccc1)C(=O)N[C@@H](CC(=O)O)C(=O)NCC(=O)N[C@@H](CCCNC(=N)N)C(=O)N[C@@H](CC(C)C)C(N)=O) [compound 32] | + | + |  | 
45 (F[AllylGly]IHRL-NH2; N-terminus assumed; SMILES C=CC[C@H](NC(=O)[C@@H](N)Cc1ccccc1)C(=O)N[C@H](C(=O)N[C@@H](Cc1c[nH]cn1)C(=O)N[C@@H](CCCNC(=N)N)C(=O)N[C@@H](CC(C)C)C(N)=O)[C@@H](C)CC) [compound 45] | + | + |  | 
73 (F[AllylGly]IGRH-NH2; N-terminus assumed; SMILES C=CC[C@H](NC(=O)[C@@H](N)Cc1ccccc1)C(=O)N[C@H](C(=O)NCC(=O)N[C@@H](CCCNC(=N)N)C(=O)N[C@@H](Cc1c[nH]cn1)C(N)=O)[C@@H](C)CC) [compound 73] | + | + |  | 
27 (F[AllylGly]FGRL-NH2; N-terminus assumed; SMILES C=CC[C@H](NC(=O)[C@@H](N)Cc1ccccc1)C(=O)N[C@@H](Cc1ccccc1)C(=O)NCC(=O)N[C@@H](CCCNC(=N)N)C(=O)N[C@@H](CC(C)C)C(N)=O) [compound 27] | + | + |  | 
15 (W[AllylGly]IGRL-NH2; N-terminus assumed; SMILES C=CC[C@H](NC(=O)[C@@H](N)Cc1c[nH]c2ccccc12)C(=O)N[C@H](C(=O)NCC(=O)N[C@@H](CCCNC(=N)N)C(=O)N[C@@H](CC(C)C)C(N)=O)[C@@H](C)CC) [compound 15] | − | + |  | 
34 (F[AllylGly]QGRL-NH2; N-terminus assumed; SMILES C=CC[C@H](NC(=O)[C@@H](N)Cc1ccccc1)C(=O)N[C@@H](CCC(N)=O)C(=O)NCC(=O)N[C@@H](CCCNC(=N)N)C(=O)N[C@@H](CC(C)C)C(N)=O) [compound 34] | + | + |  | 
12 (Y[AllylGly]IGRL-NH2; N-terminus assumed; SMILES C=CC[C@H](NC(=O)[C@@H](N)Cc1ccc(O)cc1)C(=O)N[C@H](C(=O)NCC(=O)N[C@@H](CCCNC(=N)N)C(=O)N[C@@H](CC(C)C)C(N)=O)[C@@H](C)CC) [compound 12] | − | − |  | 
8 (S[AllylGly]IGRL-NH2; N-terminus assumed; SMILES C=CC[C@H](NC(=O)[C@@H](N)CO)C(=O)N[C@H](C(=O)NCC(=O)N[C@@H](CCCNC(=N)N)C(=O)N[C@@H](CC(C)C)C(N)=O)[C@@H](C)CC) [compound 8] | − | − |  | 
58 (F[AllylGly]IGQL-NH2; N-terminus assumed; SMILES C=CC[C@H](NC(=O)[C@@H](N)Cc1ccccc1)C(=O)N[C@H](C(=O)NCC(=O)N[C@@H](CCC(N)=O)C(=O)N[C@@H](CC(C)C)C(N)=O)[C@@H](C)CC) [compound 58] | − | − |  | 
72 (F[AllylGly]IGVL-NH2; N-terminus assumed; SMILES C=CC[C@H](NC(=O)[C@@H](N)Cc1ccccc1)C(=O)N[C@H](C(=O)NCC(=O)N[C@H](C(=O)N[C@@H](CC(C)C)C(N)=O)C(C)C)[C@@H](C)CC) [compound 72] | + | − |  | 
2 (F[AllylGly]IGRL) [compound 2] | + | + |  | 
19 (P[AllylGly]IGRL-NH2; N-terminus assumed; SMILES C=CC[C@H](NC(=O)[C@@H]1CCCN1)C(=O)N[C@H](C(=O)NCC(=O)N[C@@H](CCCNC(=N)N)C(=O)N[C@@H](CC(C)C)C(N)=O)[C@@H](C)CC) [compound 19] | − | − |  | 
